Data on one compound can be found in patent publication US6747052B2, “Substituted indole-2-carboxylic acid benzylidene-hydrazides and analogs as activators of caspases and inducers of apoptosis and the use thereof” (Cytovia, Inc., priority 2000, dated 2004).

A word on the EC50: it is the concentration giving half of the maximal effect.

In this assay the test system is T-47D. As to the kind of experiment: Caspase cascade activation (N-(Ac-DEVD)-N'-ethoxycarbonyl-R110 fluorogenic substrate) in T-47D cells. To be noted: 24 h incubation with compound. The class given is cell-based, Human. As for the experimental part: Human breast cancer cell lines T-47D and ZR-75-1 were grown according to media component mixtures designated by American Type Culture Collection +10% FCS (Invitrogen Corporation, Life Technologies division), in a 5% CO2-95% humidity incubator at 37° C. T-47D and ZR-75-1 cells were maintained at a cell density between 30 and 80% confluency at a cell density of 0.1 to 0.6×10^6 cells/ml. Cells were harvested at 600×g and resuspended at 0.65×10^6 cells/ml into appropriate media +10% FCS. An aliquot of 45 μl of cells was added to a well of a 96-well microtiter plate containing 5 μl of a 10% DMSO in RPMI-1640 media solution containing 0.16 to 100 μM of 5-chloro-3-methyl-indole-2-carboxylic acid (4-nitrobenzylidene)-hydrazide (Compound A) or other test compound (0.016 to 10 μM final). An aliquot of 45 μl of cells was added to a well of a 96-well microtiter plate containing 5 μl of a 10% DMSO in RPMI-1640 media solution without test compound as the control sample. The samples were mixed by agitation and then incubated at 37° C. for 24 h in a 5% CO2-95% humidity incubator. After incubation, the samples were removed from the incubator and 50 μl of a solution containing 20 μM of N-(Ac-DEVD)-N′-ethoxycarbonyl-R110 fluorogenic substrate (Cytovia, Inc.; WO99/18856), 20% sucrose (Sigma), 20 mM DTT (Sigma), 200 mM NaCl (Sigma), 40 mM Na PIPES buffer pH 7.2 (Sigma), and 500 μg/ml lysolecithin (Calbiochem) was added. The samples were mixed by agitation and incubated at room temperature. Using a fluorescent plate reader (Model 1420 Wallac Instruments), an initial reading (T=0) was made approximately 1-2 min after addition of the substrate solution, employing excitation at 485 nm and emission at 530 nm, to determine the background fluorescence of the control sample. After the 3 h incubation, the samples were read for fluorescence as above (T=3 h).
The Relative Fluorescence Unit values (RFU) were used to calculate the sample readings as follows: RFU(T=3h)−Control RFU(T=0)=Net RFU(T=3h)
The activity of caspase cascade activation was determined by the ratio of the net RFU value for 5-chloro-3-methyl-indole-2-carboxylic acid (4-nitrobenzylidene)-hydrazide (Compound A) or other test compound to that of control samples. The EC50 (nM) was determined by a sigmoidal dose-response calculation (Prism 2.0, GraphPad Software Inc.).

Each structure is given as a SMILES string.

For the compound `Cc1c(C(=O)NN=Cc2ccc([N+](=O)[O-])cc2)[nH]c2ccc(Cl)cc12` [Compound A, 5-chloro-3-methyl-indole-2-carboxylic acid (4-nitrobenzylidene)-hydrazide], the “Caspase activity Ratio (net RFU of test compound to control)” value (3 h substrate reading) is reported as 6.9. The concentration giving a half-maximal response (EC50) (Homo sapiens, T47D) is 2000 nM.
